Test results from US10842806B2, “Methods for treating ocular inflammatory disorders” (Massachusetts Eye and Ear Infirmary, priority 2011, dated 2020).

Columns and labels:
[1] = test system: experimental autoimmune uveitis (EAU); assay: Clinical scoring of EAU by funduscopic examination; type: in vivo, C57BL/6 (WT) mice
NF-κB P65 = NF-κB P65 in retinal nuclear extracts (ELISA); type: in vivo, Lewis rats; conditions: AICAR pretreatment; 3 hours after LPS; n=9; PBS-treated EIU 27.3±11.0, control 8.3±8.6
Method: Male Lewis rats ranging from 6-8 weeks old (Charles River, Wilmington, Mass.) were used for these studies. To study the effects of AICAR pretreatment, AICAR and PBS (for placebo treatment) were delivered via intraperitoneal injection of AICAR (50 mg/kg or 100 mg/kg body weight; Sigma) diluted in 150 μl PBS or equal volume of PBS at 6 hours before and at the same time as LPS injection. Four experimental groups of rats were compared: (1) Normal: no treatment (2) AICAR: normal rats treated with AICAR 6 hours before examination; (3) LPS: EIU rats treated with PBS; (4) LPS+AICAR: EIU rats treated with AICAR. Two additional groups of rats were used to study the effects of AICAR (50 mg/kg) given either at the same time as LPS injection or at 6 hours after LPS injection. To investigate the LPS-induced signal transduction pathway, NF-κB P65 protein levels translocated into the nuclei of retinal cell extracts were examined 3 hours after LPS injection. For the measurement of NF-κB activity, pooled retinas from six normal rats, nine EIU PBS-treated rats, and nine EIU AICAR-treated rats were analyzed. […] The amount of NF-κB in the nuclear extracts was analyzed by measuring the p65 protein levels with a NF-κB detection kit (p65 Transcription Factor Assay kit; Active Motif, Carlsbad, Calif.). NF-κB concentration was calculated and corrected for protein concentration.

CCL2/MCP-1 = CCL2/MCP-1 ELISA in aqueous humor, retina and serum of EIU rats; type: in vivo, Lewis rats; conditions: LPS + AICAR
Method: Male Lewis rats ranging from 6-8 weeks old (Charles River, Wilmington, Mass.) were used for these studies. To study the effects of AICAR pretreatment, AICAR and PBS (for placebo treatment) were delivered via intraperitoneal injection of AICAR (50 mg/kg or 100 mg/kg body weight; Sigma) diluted in 150 μl PBS or equal volume of PBS at 6 hours before and at the same time as LPS injection. Four experimental groups of rats were compared: (1) Normal: no treatment (2) AICAR: normal rats treated with AICAR 6 hours before examination; (3) LPS: EIU rats treated with PBS; (4) LPS+AICAR: EIU rats treated with AICAR. Two additional groups of rats were used to study the effects of AICAR (50 mg/kg) given either at the same time as LPS injection or at 6 hours after LPS injection. Under deep anesthesia, experimental rats were sacrificed and the retinas were carefully removed 24 hours after LPS injection, placed into 200 μl of lysis buffer and then sonicated. The lysate was centrifuged at 13,000 rpm for 10 minutes at 4° C. and supernatant was isolated. Three hours after LPS injection, blood samples were collected from the heart and subsequently centrifuged at 3000 rpm for 30 minutes at 4° C., and serum samples were separated. Cytokine and chemokine levels in the serum, aqueous humor, and retina were assessed using the rat CCL2/MCP-1 kit (Invitrogen, Camarillo, Calif.), the rat TNF-α kit (R&D system, Minneapolis, Minn.) and the rat ICAM-1 kit (R&D systems) by ELISA.

`NC(=O)c1ncn([C@@H]2O[C@H](CO)[C@@H](O)[C@H]2O)c1N` [AICAR, 5-aminoimidazole-4-carboxamide-1-β-d-ribofuranoside] was tested, and the “EAU mean clinical score” value ([1]; AICAR 200 mg/kg i.p. daily day 0 to 21, day 21, scale 0-4, n=15, control 2.6±0.70) was 1.32±0.95, the “Clinical inflammation on fundus examination” value ([1]; AICAR 100 or 200 mg/kg daily, dose-dependent manner) was “suppressed” and the “EAU mean clinical score, effector phase treatment” value ([1]; AICAR administered from day 8 to 21 after immunization, n=8, controls 2.44±0.56) was 1.50±0.86. For the same compound, the “NF-κB P65 protein level in retinal nuclear extracts” value (NF-κB P65) was 18.2±3.9 ng/mg total protein, the MCP-1 in serum (CCL2/MCP-1; 3 hours after LPS, n=11, LPS 6.8 ± 0.5) was 0.4 ± 0.2 ng/mL and the “MCP-1 in aqueous humor” value (CCL2/MCP-1; 24 h after LPS, n=12, LPS 4.4 ± 3.9) was 0.8 ± 1.0 ng/mL. For the same compound, the MCP-1 in retina (CCL2/MCP-1; 24 h after LPS, n=14, LPS 18.7 ± 11.3) was 8.8 ± 2.9 pg/total retinal protein.
